The values below come from patent publication US9770445B2, “Sulfoximine substituted 5-fluoro-N-(pyridin-2-yl)pyridin-2-amine derivatives and their use as CDK9 kinase inhibitors” (BAYER PHARMA AKTIENGESELLSCHAFT, priority 2013, dated 2017).

One assay has as its target T1, CDK2/CycE (Homo sapiens, UniProt P24941).
T1 construct: GST; purchased ProQinase GmbH (Freiburg, Germany); host or cells: insect cells (Sf9)
The assay is described as follows: CDK2/CycE kinase assay (Method 2, TR-FRET). The class given is biochemical. To be noted: Method 2, 10 μM ATP. The source says:
2. CDK2/CycE Kinase Assay:
CDK2/CycE-inhibitory activity of compounds of the present invention was quantified employing the CDK2/CycE TR-FRET assay as described in the following paragraphs:
Recombinant fusion proteins of GST and human CDK2 and of GST and human CycE, expressed in insect cells (Sf9) and purified by Glutathion-Sepharose affinity chromatography, were purchased from ProQinase GmbH (Freiburg, Germany). As substrate for the kinase reaction biotinylated peptide biotin-Ttds-YISPLKSPYKISEG (C-terminus in amid form) was used which can be purchased e.g. form the company JERINI Peptide Technologies (Berlin, Germany).
For the assay 50 nl of a 100 fold concentrated solution of the test compound in DMSO was pipetted into a black low volume 384 well microtiter plate (Greiner Bio-One, Frickenhausen, Germany), 2 μl of a solution of CDK2/CycE in aqueous assay buffer [50 mM Tris/HCl pH 8.0, 10 mM MgCl2, 1.0 mM dithiothreitol, 0.1 mM sodium ortho-vanadate, 0.01% (v/v) Nonidet-P40 (Sigma)] were added and the mixture was incubated for 15 min at 22° C. to allow pre-binding of the test compounds to the enzyme before the start of the kinase reaction. Then the kinase reaction was started by the addition of 3 μl of a solution of adenosine-tri-phosphate (ATP, 16.7 μM=>final conc. in the 5 μl assay volume is 10 μM) and substrate (1.25 μM=>final conc. in the 5 μl assay volume is 0.75 μM) in assay buffer and the resulting mixture was incubated for a reaction time of 25 min at 22° C. The concentration of CDK2/CycE was adjusted depending of the activity of the enzyme lot and was chosen appropriate to have the assay in the linear range, typical concentrations were in the range of 130 ng/mL. The reaction was stopped by the addition of 5 μl of a solution of TR-FRET detection reagents (0.2 μM streptavidine-XL665 [Cisbio Bioassays, Codolet, France] and 1 nM anti-RB(pSer807/pSer811)-antibody from BD Pharmingen [#558389] and 1.2 nM LANCE EU-W1024 labeled anti-mouse IgG antibody [Perkin-Elmer, product no. AD0077]) in an aqueous EDTA-solution (100 mM EDTA, 0.2% (w/v) bovine serum albumin in 100 mM HEPES/NaOH pH 7.0).
The resulting mixture was incubated 1 h at 22° C. to allow the formation of complex between the phosphorylated biotinylated peptide and the detection reagents. Subsequently the amount of phosphorylated substrate was evaluated by measurement of the resonance energy transfer from the Eu-chelate to the streptavidine-XL. Therefore, the fluorescence emissions at 620 nm and 665 nm after excitation at 350 nm was measured in a TR-FRET reader, e.g. a Rubystar (BMG Labtechnologies, Offenburg, Germany) or a Viewlux (Perkin-Elmer). The ratio of the emissions at 665 nm and at […] was taken as the measure for the amount of phosphorylated substrate. The data were normalised (enzyme reaction without inhibitor=0% inhibition, all other assay components but no enzyme=100% inhibition).
In general terms: Time-resolved FRET reads energy transfer from a long-lived donor to a nearby acceptor.

Assay [1] relates to HeLa, human cervical tumour cells. The assay is described as follows: Proliferation assay, HeLa (crystal violet). Type of assay: cell-based. To be noted: 96 h, 4 days, read-out: Inhibition of HeLa cell proliferation. As for the experimental part:
(§1) Cultivated tumour cells (HeLa, human cervical tumour cells, ATCC CCL-2; NCI-H460, human non-small cell lung carcinoma cells, ATCC HTB-177; A2780, human ovarian carcinoma cells, ECACC #93112519; DU 145, hormone-independent human prostate carcinoma cells, ATCC HTB-81; HeLa-MaTu-ADR, multidrug-resistant human cervical carcinoma cells, EPO-GmbH Berlin; Caco-2, human colorectal carcinoma cells, ATCC HTB-37; B16F10, mouse melanoma cells, ATCC CRL-6475) were plated at a density of 5,000 cells/well (DU145, HeLa-MaTu-ADR), 3,000 cells/well (NCI-H460, HeLa), 2,500 cells/well (A2780), 1,500 cells/well (Caco-2), or 1,000 cells/well (B16F10) in a 96-well multititer plate in 200 μL of their respective growth medium supplemented 10% fetal calf serum. After 24 hours, the cells of one plate (zero-point plate) were stained with crystal violet (see below), while the medium of the other plates was replaced by fresh culture medium (200 μl), to which the test substances were added in various concentrations (0 μM, as well as in the range of 0.001-10 μM; the final concentration of the solvent dimethyl sulfoxide was 0.5%). The cells were incubated for 4 days in the presence of test substances. Cell proliferation was determined by staining the cells with crystal violet: the cells were fixed by adding 20 μl/measuring point of an 11% glutaric aldehyde solution for 15 minutes at room temperature. After three washing cycles of the fixed cells with water, the plates were dried at room temperature. The cells were stained by adding 100 μl/measuring point of a 0.1% crystal violet solution (pH 3.0). After three washing cycles of the stained cells with water, the plates were dried at room temperature. The dye was dissolved by adding 100 μl/measuring point of a 10% acetic acid solution. The extinction was determined by photometry at a wavelength of 595 nm. The change of cell number, in percent, was calculated by normalization of the measured values to the extinction values of the zero-point plate (=0%) and the extinction of the untreated (0 μm) cells (=100%). The IC50 values (inhibitory concentration at 50% of maximal effect) were determined by means of a 4 parameter fit.

Assay [2] deals with HeLa-MaTu-ADR, multidrug-resistant human cervical carcinoma cells. The assay is described as follows: Proliferation assay, HeLa-MaTu-ADR (crystal violet). The class given is cell-based. To be noted: 96 h, 4 days, read-out: Inhibition of HeLa-MaTu-ADR cell proliferation. On the procedure: as §1
For assay [3], the system named is NCI-H460, human non-small cell lung carcinoma cells. The assay is described as follows: Proliferation assay, NCI-H460 (crystal violet). The class given is cell-based. To be noted: 96 h, NCI-H460, 4 days, read-out: Inhibition of NCI-H460 cell proliferation. As for the experimental part:
as §1

Assay [4] concerns DU 145, hormone-independent human prostate carcinoma cells. Briefly: Proliferation assay, DU145 (crystal violet). The class given is cell-based. To be noted: DU-145, 96 h, DU145, 4 days, read-out: Inhibition of DU145 cell proliferation. On the procedure:
as §1

Assay [5] relates to Caco-2, human colorectal carcinoma cells. Briefly: Proliferation assay, Caco-2 (crystal violet). The class given is cell-based. To be noted: 96 h, Caco-2, 4 days, read-out: Inhibition of Caco-2 cell proliferation. As for the experimental part: as §1
Assay [6] has as its system B16F10, mouse melanoma cells. The assay is described as follows: Proliferation assay, B16F10 (crystal violet). Type of assay: cell-based. To be noted: B16-F10, 96 h, B16F10, 4 days, read-out: Inhibition of B16F10 cell proliferation. On the procedure:
as §1

For assay [7], the system named is A2780, human ovarian carcinoma cells. The assay is described as follows: Proliferation assay, A2780 (crystal violet). Type of assay: cell-based. To be noted: 96 h, A2780, 4 days, read-out: Inhibition of A2780 cell proliferation. On the procedure: as §1, with “The IC50 values (inhibitory concentration at 50% of maximal effect) were determined by means of a 4 parameter fit.” left out

`CS(=O)(Cc1ccnc(Nc2cc(-c3ccc(F)c4ccoc34)c(F)cn2)c1)=NC(=O)NCC(F)(F)F` (racemic) [Example 13, (rac)-1-{[(2-{[5-Fluoro-4-(4-fluoro-1-benzofuran-7-yl)pyridin-2-yl]amino}pyridin-4-yl)methyl](methyl)oxido-λ^6-sulfanylidene}-3-(2,2,2-trifluoroethyl)urea] showed an IC50 against CDK2/CycE of 280 nM.

Take `CS(=N)(=O)Cc1cc(Nc2cc(-c3ccc(F)c4ccoc34)c(F)cn2)nc(C(F)(F)F)c1` (racemic) [Example 3, (rac)-5-Fluoro-4-(4-fluoro-1-benzofuran-7-yl)-N-{4-[(S-methylsulfonimidoyl)methyl]-6-(trifluoromethyl)pyridin-2-yl}pyridin-2-amine]: the IC50 was found to be 21 nM on CDK2/CycE; 6 nM in assay [1]; 11 nM in assay [2]; 21 nM in assay [3]; 15 nM in assay [4]; 19 nM in assay [5]. The figures for the IC50 in assay [6] and in assay [7] were 19 nM and 10 nM, respectively.

Turning to `CCc1cc(CS(C)(=N)=O)cc(Nc2cc(-c3ccc(F)c4ccoc34)c(F)cn2)n1` (racemic) [Example 8, (rac)-N-{6-Ethyl-4-[(S-methylsulfonimidoyl)methyl]pyridin-2-yl}-5-fluoro-4-(4-fluoro-1-benzofuran-7-yl)pyridin-2-amine], the IC50 against CDK2/CycE was determined as 14 nM; in assay [1], 7.6 nM; in assay [2], 8.8 nM; in assay [3], 35 nM; in assay [4], 11 nM; in assay [5], 9.4 nM. Moreover, the IC50 in assay [6] stood at 32 nM.

Take `Cc1cc(CS(C)(=N)=O)cc(Nc2cc(-c3ccc(F)c4ccoc34)c(F)cn2)n1` (racemic) [Example 7, (rac)-5-Fluoro-4-(4-fluoro-1-benzofuran-7-yl)-N-{6-methyl-4-[(S-methylsulfonimidoyl)-methyl]pyridin-2-yl}pyridin-2-amine]: the IC50 came out at 39 nM against CDK2/CycE; 11 nM in assay [1]; 9.1 nM in assay [2]; 33 nM in assay [3]; 14 nM in assay [4]; 14 nM in assay [5]. Moreover, in assay [6], the IC50 came out at 17 nM.

For the compound `CS(=O)(Cc1ccnc(Nc2cc(-c3ccc(F)c4ccoc34)c(F)cn2)c1)=NC(=O)C(F)(F)F` (racemic) [Example 6, (rac)-2,2,2-Trifluoro-N-{[(2-{[5-fluoro-4-(4-fluoro-1-benzofuran-7-yl)pyridin-2-yl]amino}pyridin-4-yl)methyl](methyl)oxido-λ^6-sulfanylidene}acetamide], the IC50 came out at 540 nM against CDK2/CycE; 42 nM in assay [1]; 52 nM in assay [2]; 46 nM in assay [3]; 42 nM in assay [4]; 58 nM in assay [5]. In addition, the IC50 in assay [6] was determined as 88 nM.

The compound `CCNC(=O)N=S(C)(=O)Cc1ccnc(Nc2cc(-c3ccc(F)c4ccoc34)c(F)cn2)c1` (racemic) [Example 12, (rac)-1-Ethyl-3-{[(2-{[5-fluoro-4-(4-fluoro-1-benzofuran-7-yl)pyridin-2-yl]amino}pyridin-4-yl)methyl](methyl)oxido-λ^6-sulfanylidene}urea] showed an IC50 against CDK2/CycE of 113 nM.

`CC(=O)N=S(C)(=O)Cc1ccnc(Nc2cc(-c3ccc(F)c4ccoc34)c(F)cn2)c1` (racemic) [Example 10, (rac)-N-{[(2-{[5-fluoro-4-(4-fluoro-1-benzofuran-7-yl)pyridin-2-yl]amino}pyridin-4-yl)methyl](methyl)oxido-λ^6-sulfanylidene}acetamide] returned an IC50 against CDK2/CycE of 166 nM.

Turning to `CS(=O)(Cc1ccnc(Nc2cc(-c3ccc(F)c4ccoc34)c(F)cn2)c1)=NC#N` (racemic) [Example 9, (rac)-{[(2-{[5-fluoro-4-(4-fluoro-1-benzofuran-7-yl)pyridin-2-yl]amino}pyridin-4-yl)methyl](methyl)oxido-λ^6-sulfanylidene}cyanamide], on CDK2/CycE, the IC50 was determined as 146 nM.

As for `CCOC(=O)N=S(C)(=O)Cc1ccnc(Nc2cc(-c3ccc(F)c4ccoc34)c(F)cn2)c1` (racemic) [Example 11, (rac)-Ethyl {[(2-{[5-fluoro-4-(4-fluoro-1-benzofuran-7-yl)pyridin-2-yl]amino}pyridin-4-yl)methyl](methyl)oxido-λ^6-sulfanylidene}carbamate], the IC50 against CDK2/CycE was determined as 138 nM.

On to `CS(=O)(Cc1cc(Nc2cc(-c3ccc(F)c4ccoc34)c(F)cn2)nc(C(F)(F)F)c1)=NC(=O)C(F)(F)F` (racemic) [Example 4, (rac)-2,2,2-Trifluoro-N-[{[2-{[5-fluoro-4-(4-fluoro-1-benzofuran-7-yl)pyridin-2-yl]amino}-6-(trifluoromethyl)pyridin-4-yl]methyl}(methyl)oxido-λ^6-sulfanylidene]acetamide], for which the IC50 against CDK2/CycE amounted to 110 nM; in assay [1], 31 nM; in assay [2] it was 30 nM; in assay [3], 36 nM; in assay [4] it was 37 nM; in assay [5] it was 40 nM. Moreover, the IC50 in assay [6] came to 44 nM.

Consider `CS(=O)(Cc1cc(F)nc(Nc2cc(-c3ccc(F)c4ccoc34)c(F)cn2)c1)=NC(=O)C(F)(F)F` (racemic) [Example 2, (rac)-2,2,2-Trifluoro-N-{[(2-fluoro-6-{[5-fluoro-4-(4-fluoro-1-benzofuran-7-yl)pyridin-2-yl]amino}pyridin-4-yl)methyl](methyl)oxido-λ^6-sulfanylidene}acetamide], for which the IC50 against CDK2/CycE was determined as 380 nM; in assay [1], 31 nM; in assay [2], 30 nM; in assay [3] it was 32 nM; in assay [4], 32 nM; in assay [5], 35 nM. Besides, in assay [6], the IC50 is 42 nM.
